Measurements from ChEMBL document CHEMBL3885881, “DrugMatrix”.

Species on record: Rattus norvegicus
Test: DrugMatrix - Regimen: Daily Repeat
Format: toxicity, organism-based, Sprague-Dawley
Parameters: regimen Daily Repeat, gender Male, age 6-8 weeks
Settings: in vivo, po, 250 mg/kg, route oral GAVAGE, dose level High, […]; for ABSOLUTE BASOPHIL / ABSOLUTE EOSINOPHIL / ABSOLUTE LYMPHOCYTE / ABSOLUTE MONOCYTE / ABSOLUTE SEGMENTED NEUTROPHIL / BASOPHIL / EOSINOPHIL / ERYTHROCYTE COUNT / HEMATOCRIT / HEMOGLOBIN / LEUKOCYTE COUNT / LYMPHOCYTE / MEAN CORPUSCULAR HEMOGLOBIN / MEAN CORPUSCULAR HEMOGLOBIN CONCENTRATION / MEAN CORPUSCULAR VOLUME / MONOCYTE / NEUTROPHIL / NUCLEATED RED BLOOD CELLS / PLATELET COUNT: tissue Blood; for ALANINE AMINOTRANSFERASE / ALBUMIN / ALKALINE PHOSPHATASE / ASPARTATE AMINOTRANSFERASE / BLOOD UREA NITROGEN / CARBON DIOXIDE / CHLORIDE / CHOLESTEROL / CREATINE PHOSPHOKINASE / CREATININE / GLUCOSE / LACTATE DEHYDROGENASE / LIPASE / PHOSPHORUS / POTASSIUM / SODIUM / TOTAL BILIRUBIN / TOTAL PROTEIN / URIC ACID: tissue Plasma

CC(C)C(Br)C(=O)NC(N)=O (stereo unspecified) [BROMISOVALUM]
ABSOLUTE BASOPHIL (72 h, time 3 day): 0 CELLS/uL | ABSOLUTE EOSINOPHIL (72 h, time 3 day): 0 CELLS/uL | ABSOLUTE LYMPHOCYTE (72 h, time 3 day): 11820.33 CELLS/uL | ABSOLUTE MONOCYTE (72 h, time 3 day): 38.33 CELLS/uL | ABSOLUTE SEGMENTED NEUTROPHIL (72 h, time 3 day): 1174.67 CELLS/uL | BASOPHIL (72 h, time 3 day): 0% | EOSINOPHIL (72 h, time 3 day): 0% | ERYTHROCYTE COUNT (72 h, time 3 day): 5.57 x10E6/uL | HEMATOCRIT (72 h, time 3 day): 35.87% | HEMOGLOBIN (72 h, time 3 day): 14.33 G/DL | LEUKOCYTE COUNT (72 h, time 3 day): 13.03 x10E3/uL | LYMPHOCYTE (72 h, time 3 day): 91% | MEAN CORPUSCULAR HEMOGLOBIN (72 h, time 3 day): 25.8 pg | MEAN CORPUSCULAR HEMOGLOBIN CONCENTRATION (72 h, time 3 day): 39.97 G/DL | MEAN CORPUSCULAR VOLUME (72 h, time 3 day): 64.47 fL | MONOCYTE (72 h, time 3 day): 0.33% | NEUTROPHIL (72 h, time 3 day): 8.67% | NUCLEATED RED BLOOD CELLS (72 h, time 3 day): 0 /100WBC | PLATELET COUNT (72 h, time 3 day): 1177.33 x10E3/uL | ALANINE AMINOTRANSFERASE (72 h, time 3 day): 70 u/L | ALBUMIN (72 h, time 3 day): 4.17 G/DL | ALKALINE PHOSPHATASE (72 h, time 3 day): 407.67 u/L | ASPARTATE AMINOTRANSFERASE (72 h, time 3 day): 90.33 u/L | BLOOD UREA NITROGEN (72 h, time 3 day): 15 mg/dL | CARBON DIOXIDE (72 h, time 3 day): 27.33 mmol/L | CHLORIDE (72 h, time 3 day): 103 MEQ/L | CHOLESTEROL (72 h, time 3 day): 62.67 mg/dL | CREATINE PHOSPHOKINASE (72 h, time 3 day): 210.67 u/L | CREATININE (72 h, time 3 day): 0.26 mg/dL | GLUCOSE (72 h, time 3 day): 148 mg/dL | LACTATE DEHYDROGENASE (72 h, time 3 day): 109.33 u/L | LIPASE (72 h, time 3 day): 10.33 u/L | PHOSPHORUS (72 h, time 3 day): 11.9 mg/dL | POTASSIUM (72 h, time 3 day): 6.86 MEQ/L | SODIUM (72 h, time 3 day): 144.53 MEQ/L | TOTAL BILIRUBIN (72 h, time 3 day): 0.2 mg/dL | TOTAL PROTEIN (72 h, time 3 day): 5.67 G/DL | URIC ACID (72 h, time 3 day): 1.67 mg/dL | ABSOLUTE BASOPHIL (120 h, time 5 day): 0 CELLS/uL | ABSOLUTE EOSINOPHIL (120 h, time 5 day): 46.33 CELLS/uL | ABSOLUTE LYMPHOCYTE (120 h, time 5 day): 14344.33 CELLS/uL | ABSOLUTE MONOCYTE (120 h, time 5 day): 108 CELLS/uL | ABSOLUTE SEGMENTED NEUTROPHIL (120 h, time 5 day): 1434.67 CELLS/uL | BASOPHIL (120 h, time 5 day): 0% | EOSINOPHIL (120 h, time 5 day): 0.33% | ERYTHROCYTE COUNT (120 h, time 5 day): 6.03 x10E6/uL | HEMATOCRIT (120 h, time 5 day): 36.47% | HEMOGLOBIN (120 h, time 5 day): 14.63 G/DL | LEUKOCYTE COUNT (120 h, time 5 day): 15.93 x10E3/uL | LYMPHOCYTE (120 h, time 5 day): 89.67% | MEAN CORPUSCULAR HEMOGLOBIN (120 h, time 5 day): 24.23 pg | MEAN CORPUSCULAR HEMOGLOBIN CONCENTRATION (120 h, time 5 day): 40.13 G/DL | MEAN CORPUSCULAR VOLUME (120 h, time 5 day): 60.47 fL | MONOCYTE (120 h, time 5 day): 0.67% | NEUTROPHIL (120 h, time 5 day): 9.33% | NUCLEATED RED BLOOD CELLS (120 h, time 5 day): 0 /100WBC | PLATELET COUNT (120 h, time 5 day): 1192.33 x10E3/uL | ALANINE AMINOTRANSFERASE (120 h, time 5 day): 64.67 u/L | ALBUMIN (120 h, time 5 day): 4.43 G/DL | ALKALINE PHOSPHATASE (120 h, time 5 day): 429.33 u/L | ASPARTATE AMINOTRANSFERASE (120 h, time 5 day): 83.67 u/L | BLOOD UREA NITROGEN (120 h, time 5 day): 13.33 mg/dL | CARBON DIOXIDE (120 h, time 5 day): 25.67 mmol/L | CHLORIDE (120 h, time 5 day): 104 MEQ/L | CHOLESTEROL (120 h, time 5 day): 55 mg/dL | CREATINE PHOSPHOKINASE (120 h, time 5 day): 157.67 u/L | CREATININE (120 h, time 5 day): 0.2 mg/dL | GLUCOSE (120 h, time 5 day): 140.67 mg/dL | LACTATE DEHYDROGENASE (120 h, time 5 day): 110.67 u/L | LIPASE (120 h, time 5 day): 9.67 u/L | PHOSPHORUS (120 h, time 5 day): 9.97 mg/dL | POTASSIUM (120 h, time 5 day): 6.56 MEQ/L | SODIUM (120 h, time 5 day): 144.1 MEQ/L | TOTAL BILIRUBIN (120 h, time 5 day): 0.2 mg/dL | TOTAL PROTEIN (120 h, time 5 day): 6.27 G/DL | URIC ACID (120 h, time 5 day): 1.53 mg/dL
